Experimental data taken from patent US8946273B2, “S-Triazolyl alpha-mercapto acetanilides as inhibitors of HIV reverse transcriptase” (priority 2011, dated 2015).

How the values were obtained:
[1] = molecular target: mutant HIV reverse transcriptases (Human immunodeficiency virus type 1, UniProt P12497, Y768C, cells depend on it); assay type: cell-based
[2] = molecular target: mutant HIV reverse transcriptases (Human immunodeficiency virus type 1, UniProt P12497, Y775L, cells depend on it); assay type: cell-based
[3] = molecular target: T1, wild-type HIV reverse transcriptase (Human immunodeficiency virus type 1 group M subtype B, UniProt P04585); assay: Activity on wild type reverse transcriptase (Table 1 IC50 WT); assay type: biochemical
T1 construct: wild-type and four mutant HIV reverse transcriptases

wild type HIV-1 = assay: microbe, parasite or virus in culture; assay type: cell-based, human immunodeficiency virus type 1 (HIV-1); conditions: Human immunodeficiency virus 1, Hela-JC53, read-out: EC50 WT

With CCOC(=O)C(C)NS(=O)(=O)c1ccc(NC(=O)CSc2nnc(C(F)F)n2-c2ccc(C)c3c2CCCC3)c(Cl)c1 (stereo not drawn) [compound 56] the EC50 [1] was less than 50 nM, the EC50 [2] was greater than 100 nM and the IC50 [3] was less than 50 nM. For the same compound, the EC50 (wild type HIV-1) was less than 50 nM.

In the case of CCc1ccc(-n2c(Br)nnc2SCC(=O)Nc2ccc(C(=O)NCCCCO)cc2Cl)c2ccccc12 [compound 137], the EC50 [1] is reported as less than 50 nM, the EC50 [2] is reported as less than 50 nM and the IC50 [3] is reported as less than 50 nM. It also gave an EC50 (wild type HIV-1) of less than 50 nM.

Work on CNS(=O)(=O)c1ccc(NC(=O)CSc2nnc(C(F)F)n2-c2ccc(C)c3c2CCCC3)c(Cl)c1 [compound 51] yielded an EC50 [1] of less than 50 nM, an EC50 [2] of less than 50 nM and an IC50 [3] of less than 50 nM. The EC50 (wild type HIV-1) was less than 50 nM.

In the case of CCc1cc(C2CC2)ccc1-n1c(Br)nnc1SCC(=O)Nc1ccc(C(=O)O)cc1Cl [compound 29], the EC50 [1] is reported as less than 50 nM, the EC50 [2] is reported as greater than 100 nM and the IC50 [3] is reported as less than 50 nM. For the same compound, the EC50 (wild type HIV-1) was less than 50 nM.

Cc1ccc(-n2c(SCC(=O)Nc3ccc(S(=O)(=O)NCCN4CCOCC4)cc3Cl)nnc2C(F)F)c2c1CCCC2 [compound 57] was tested, and the EC50 [1] was less than 50 nM, the EC50 [2] was 50 to 100 nM and the IC50 [3] was less than 50 nM. For the same compound, the EC50 (wild type HIV-1) was less than 50 nM.

Work on CCc1ccc(-n2c(Br)nnc2SCC(=O)Nc2ccc(C(=O)NCC(C)O)cc2Cl)c2ccccc12 (stereo not drawn) [compound 128] yielded an EC50 [1] of less than 50 nM, an EC50 [2] of less than 50 nM and an IC50 [3] of less than 50 nM. The EC50 (wild type HIV-1) was less than 50 nM.

With CCc1ccc(-n2c(C)nnc2SCC(=O)Nc2ccc(S(N)(=O)=O)cc2Cl)c2c1CCCC2 [compound 43] the EC50 [1] was less than 50 nM, the EC50 [2] was less than 50 nM and the IC50 [3] was less than 50 nM. The EC50 (wild type HIV-1) was less than 50 nM.

In the case of CCc1ccc(-n2c(Br)nnc2SCC(=O)Nc2ccc(C(=O)NCCOC)cc2Cl)c2ccccc12 [compound 127], the EC50 [1] is reported as less than 50 nM, the EC50 [2] is reported as less than 50 nM and the IC50 [3] is reported as less than 50 nM. For the same compound, the EC50 (wild type HIV-1) was less than 50 nM.

Compound Cc1cc(C2CC2)c2ccccc2c1-n1c(Br)nnc1SCC(=O)Nc1ccc(C(=O)O)cc1Cl [compound 23] has an EC50 [1] of less than 50 nM, an EC50 [2] of less than 50 nM and an IC50 [3] of less than 50 nM. The EC50 (wild type HIV-1) was less than 50 nM.

Compound O=C(CSc1nnc(Br)n1-c1ccc(C2CC2)cc1Cl)Nc1ccc(C(=O)O)cc1Cl [compound 31] has an EC50 [1] of less than 50 nM, an EC50 [2] greater than 100 nM and an IC50 [3] of less than 50 nM. The EC50 (wild type HIV-1) was less than 50 nM.

Work on CCOC(=O)CN(C)C(=O)c1ccc(NC(=O)CSc2nnc(Br)n2-c2ccc(C3CC3)c3ccccc23)c(Cl)c1 [compound 109] yielded an EC50 [1] of less than 50 nM, an EC50 [2] of less than 50 nM and an IC50 [3] of 50 to 100 nM. The EC50 (wild type HIV-1) was less than 50 nM.

Cc1cc(S(N)(=O)=O)ccc1NC(=O)CSc1nnc(Br)n1-c1ccc(F)c2ccccc12 [compound 62] gave an EC50 [1] of less than 50 nM, an EC50 [2] greater than 100 nM and an IC50 [3] of less than 50 nM. The EC50 (wild type HIV-1) was less than 50 nM.
